# Measured values published in article PMC10141580, “Cyclic Dichalcogenides Extend the Reach of Bioreductive Prodrugs to Harness Thiol/Disulfide Oxidoreductases: Applications to seco-Duocarmycins Targeting the Thioredoxin System” (ACS Central Science, 2023).
# Read-outs that look alike come from different tables or passages of the source.
# Test system: panel of 140 standard cancer cell lines
# Test: ProliFiler-140 cancer cell line screen (CellTiterGlo, 72 h)
# Format: cell-based
# Conditions: read-out: IC50 [M] (ProliFiler-140)
# Protocol: Incubations were performed for 72 h before automated viability readout with CellTiterGlo (Figure 8).
# End of Figure S11 (part 5 of 5): ProliFiler-140 cancer cell line screening for cytotoxicity of the prodrugs.
# 8-data-point dose response curves from CellTiter-Glo® viability readout.
# ProliFiler-140 cell line panel part V
structure (smiles),measurement,setting,value
"COc1cccc2c1C(=O)c1c(O)c3c(c(O)c1C2=O)C[C@@](O)(C(=O)CO)C[C@@H]3O[C@H]1C[C@H](N)[C@H](O)[C@H](C)O1 [doxorubicin, reference compound]",IC50,"MCAS (Ovary), listed as Dox",1.13e-07 M
same,IC50,MCAS (Ovary),1.1e-07 M
same,IC50,"MDA MB 435 (Skin), listed as Dox",4.83e-07 M
same,IC50,"MDA-MB-468 (Breast), listed as Dox",4.71e-08 M
same,IC50,"MEC-1 (Blood), listed as Dox",7.33e-08 M
same,IC50,"MKN-1 (Stomach), listed as Dox",5.25e-08 M
same,IC50,"MOLM-13 (Blood), listed as Dox",2.12e-08 M
same,IC50,"MV4-11 (Blood), listed as Dox",4.26e-09 M
same,IC50,"Mia PaCA 2 (Pancreas), listed as Dox",7.4e-08 M
same,IC50,"NCI-H82 (Lung), listed as Dox",6.24e-07 M
same,IC50,"NCI-H292 (Lung), listed as Dox",7.17e-08 M
same,IC50,"NCI-H838 (Lung), listed as Dox",1.51e-07 M
same,IC50,"NCI-H1563 (Lung), listed as Dox",5.43e-07 M
same,IC50,"NCI-H1573 (Lung), listed as Dox",2.97e-06 M
same,IC50,"NCI-H1703 (Lung), listed as Dox",9.24e-08 M
same,IC50,"NCI-H1838 (Lung), listed as Dox",2.52e-07 M
same,IC50,"NCI-H2110 (Lung), listed as Dox",3.55e-08 M
same,IC50,"NCI-H2110, NCI-H2110 (Lung)",3.6e-08 M
same,IC50,"NCI-H2286 (Lung), listed as Dox",4.39e-08 M
same,IC50,"OCI-AML5 (Blood), listed as Dox",3.09e-08 M
same,IC50,"OCI-LY19 (Blood), listed as Dox",5.5e-09 M
same,IC50,"OPM-2 (Blood), listed as Dox",2.4e-07 M
same,IC50,"OV56, OV56 (Ovary)",2.02e-07 M
same,IC50,"OVCAR-3 (Ovary), listed as Dox",3.73e-07 M
same,IC50,"OVK18 (Ovary), listed as Dox",3.4e-08 M
same,IC50,"OVK18, OVK18 (Ovary)",3.42e-08 M
same,IC50,"P31/FUJ (Blood), listed as Dox",1.02e-07 M
same,IC50,"PANC-1 (Pancreas), listed as Dox",8.01e-07 M
same,IC50,"PC3 (Prostate), listed as Dox",7.4e-07 M
same,IC50,PC3 (Prostate),7.38e-07 M
same,IC50,"PC-9 (Lung), listed as Dox",1.92e-07 M
same,IC50,PC-9 (Lung),1.9e-07 M
same,IC50,"RERF-LC-Ad2, RERF-LC-Ad2 (Lung)",4.6e-07 M
same,IC50,"RERF-LC-MS (Lung), listed as Dox",1.7e-07 M
same,IC50,RERF-LC-MS (Lung),1.74e-07 M
same,IC50,"RKO (Colon), listed as Dox",9.9e-08 M
same,IC50,RKO (Colon),9.86e-08 M
same,IC50,"RPMI 8226 (Blood), listed as Dox",8.8e-08 M
same,IC50,"SCH (Stomach), listed as Dox",1.38e-07 M
same,IC50,SCH (Stomach),1.4e-07 M
same,IC50,"SK-BR-3 (Breast), listed as Dox",1.28e-07 M
same,IC50,"SK-LU-1 (Lung), listed as Dox",2.67e-07 M
same,IC50,"SK-MEL-3 (Skin), listed as Dox",5.12e-07 M
same,IC50,"SK-N-FI (Brain), listed as Dox",1.4e-06 M
same,IC50,"SK-N-MC (Brain), listed as Dox",1.47e-08 M
same,IC50,"SK-N-SH (Brain), listed as Dox",9.82e-08 M
same,IC50,"SK-OV3 (Ovary), listed as Dox",1.8e-07 M
same,IC50,"SNU-1 (Stomach), listed as Dox",5.88e-08 M
same,IC50,"SNU-216, SNU-216 (Stomach)",3.9e-07 M
same,IC50,"SNU-840, SNU840 (Ovary)",1.33e-07 M
same,IC50,"SU-DHL-5 (Blood), listed as Dox",9.15e-09 M
same,IC50,"SW-1783 (Brain), listed as Dox",3e-07 M
same,IC50,"T84 (Colon), listed as Dox",1.4e-06 M
same,IC50,T84 (Colon),1.35e-06 M
same,IC50,"T-47D (Breast), listed as Dox",4.35e-07 M
same,IC50,"U87MG (Brain), listed as Dox",1.62e-07 M
same,IC50,"U118MG (Brain), listed as Dox",2.6e-07 M
same,IC50,"U251MG (Brain), listed as Dox",7.84e-07 M
